# The source made the active and inactive calls.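 The calls were made as follows: active = mean IC50 below 20 µM in each of the two panels, so potent in both; inactive = the rest.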
# Target: Neuropilin-1 (Homo sapiens) (UniProt O14786)
# Experiment: blockers of CendR peptide binding to NRP-1 – biochemical, FP and AlphaScreen panel, dose response (AID 651650)
# Details: NRP-1 b1b2 / RPARPAR peptide binding, FP or AlphaScreen; AlphaScreen, mean of runs
# Neuropilin-1 (Homo sapiens), sequence (O14786 whole entry, looked up): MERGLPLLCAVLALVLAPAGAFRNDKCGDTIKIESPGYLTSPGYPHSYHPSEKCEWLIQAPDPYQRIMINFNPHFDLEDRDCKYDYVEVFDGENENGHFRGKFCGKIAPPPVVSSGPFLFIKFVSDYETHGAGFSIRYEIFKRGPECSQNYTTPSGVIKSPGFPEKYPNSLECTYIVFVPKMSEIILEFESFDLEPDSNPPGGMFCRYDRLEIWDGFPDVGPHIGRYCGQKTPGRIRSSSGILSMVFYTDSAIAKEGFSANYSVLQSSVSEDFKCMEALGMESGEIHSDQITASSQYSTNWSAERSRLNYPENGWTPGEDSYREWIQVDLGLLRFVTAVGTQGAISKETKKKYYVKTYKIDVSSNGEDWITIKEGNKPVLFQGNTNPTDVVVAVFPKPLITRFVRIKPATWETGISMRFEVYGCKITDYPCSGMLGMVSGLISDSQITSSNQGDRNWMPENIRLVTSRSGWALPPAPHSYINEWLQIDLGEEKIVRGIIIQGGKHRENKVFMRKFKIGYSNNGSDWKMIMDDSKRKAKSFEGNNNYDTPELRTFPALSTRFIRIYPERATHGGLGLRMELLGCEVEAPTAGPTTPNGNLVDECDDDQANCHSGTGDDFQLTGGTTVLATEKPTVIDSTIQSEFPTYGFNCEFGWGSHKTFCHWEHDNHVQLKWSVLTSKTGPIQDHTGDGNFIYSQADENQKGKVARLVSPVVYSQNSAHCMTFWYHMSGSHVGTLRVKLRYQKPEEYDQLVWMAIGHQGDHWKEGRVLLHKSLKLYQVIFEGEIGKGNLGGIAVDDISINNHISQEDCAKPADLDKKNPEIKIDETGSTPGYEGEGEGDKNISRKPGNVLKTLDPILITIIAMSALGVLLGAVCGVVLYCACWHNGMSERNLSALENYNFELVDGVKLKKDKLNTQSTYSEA
row,SMILES,IC50
1,CCOC(=O)C1CCN(S(=O)(=O)c2ccc3c(c2)CCN3C(=O)C2CCC2)CC1,> 100 µM (inactive)
2,CCc1ccc(NS(=O)(=O)c2c(C(=O)N3CCCCCC3)c(C)n(C)c2C)cc1,> 100 µM (inactive)
3,O=C(CSc1nc2ccccc2c(=O)n1-c1ccc(F)cc1F)Nc1ccc2c(c1)CCC2,> 100 µM (inactive)
4,Nc1cc(S(=O)(=O)O)cc([N+](=O)[O-])c1O,4.28 µM
5,O=C(O)C1CCN(C(=O)c2ccc(Cl)cc2)CC1,> 100 µM (inactive)
6,CNc1nc(-c2ccc3c(c2)CCN3C(=O)c2ccccc2F)cs1,> 100 µM (inactive)
7,COc1c2ccc(C(=O)NCc3cc(C(F)(F)F)cc(C(F)(F)F)c3)cc2nn1C,> 100 µM (inactive)
8,Cc1ccc(CN(CC(=O)NC2CCCCC2)C(=O)c2csnn2)cc1,> 100 µM (inactive)
9,CC(C)(C)n1cnc2cc(NC(=O)c3ccccc3)ccc21,17 µM
10,COc1cc(CN2C[C@@H](CO)O[C@@H](n3cnc4c(N5CCN(c6ccccc6)CC5)ncnc43)C2)cc(OC)c1OC,inactive
11,Fc1cc(Cl)ccc1Nc1nc(NCc2ccccc2)nc2ccsc12,> 100 µM (inactive)
12,COc1cccc(N2[C@@H](CC(C)=O)c3ccc(/C=C/C(C)=O)cc3S2(=O)=O)c1,> 100 µM (inactive)
13,CC(=O)/C(=N\Nc1ccc(Cl)cc1Cl)Sc1cccc2cccnc12,> 100 µM (inactive)
14,CCn1cc(C(=O)N2CCN(C(=O)c3ccco3)CC2)c2cc(OC)c(OC)cc2c1=O,inactive
15,CC(CN1CCOCC1)OC(=O)c1ccc2c(c1)OCCO2 (stereo not given),> 100 µM (inactive)
16,CCOC(=O)[C@@H]1[C@H]2COc3ccccc3[C@@H]2N2C(=O)N(c3ccc(Cl)cc3)C(=O)[C@]12C,7.51 µM
17,Cc1ccc(NC(=O)c2ccc3c(c2)OCCO3)cc1S(=O)(=O)Nc1cccc(Cl)c1,> 100 µM (inactive)
18,O=C(O)CCCC(=O)N1CCc2cc(S(=O)(=O)N3CCc4ccccc43)ccc21,> 100 µM (inactive)
19,CCCN(C(=O)Cn1c(C(F)(F)F)nc2ccccc21)C1CCS(=O)(=O)C1 (stereo not given),11.2 µM
20,Cc1ccc(C2(O)CCN3CCCCC32)cc1 (stereo not given),> 100 µM (inactive)
21,Cc1ccccc1-n1ncc2c1CC(C)(C)CC2NC(=O)c1ccncc1 (stereo not given),> 100 µM (inactive)
22,CCn1ncc(Br)c1C(=O)N(C)C12CC3CC(CC(C3)C1)C2,> 100 µM (inactive)
23,COc1ccc(C(CNc2ccc(S(=O)(=O)N3CCCC3)cc2[N+](=O)[O-])N2CCCC2)cc1 (stereo not given),12.2 µM
24,OCCNc1ncnc2ccc(Br)cc12,inactive
25,NC(=O)c1c(NC(=O)C(=O)N2CCOCC2)sc2c1CCCC2,> 100 µM (inactive)
26,COc1ccc2c(c1OC)CN1CCc3cc4c(cc3[C@@H]1[C@@H]2O)OCO4,> 100 µM (inactive)

# Same assay, conditions: NRP-1 b1b2 / RPARPAR peptide binding, FP or AlphaScreen; AlphaScreen, run 1; individual panel run IC50
row,SMILES,IC50
1,CCOC(=O)C1CCN(S(=O)(=O)c2ccc3c(c2)CCN3C(=O)C2CCC2)CC1,> 100 µM
2,CCc1ccc(NS(=O)(=O)c2c(C(=O)N3CCCCCC3)c(C)n(C)c2C)cc1,> 100 µM
3,O=C(CSc1nc2ccccc2c(=O)n1-c1ccc(F)cc1F)Nc1ccc2c(c1)CCC2,> 100 µM
4,Nc1cc(S(=O)(=O)O)cc([N+](=O)[O-])c1O,4.28 µM
5,O=C(O)C1CCN(C(=O)c2ccc(Cl)cc2)CC1,> 100 µM
6,CNc1nc(-c2ccc3c(c2)CCN3C(=O)c2ccccc2F)cs1,> 100 µM
7,COc1c2ccc(C(=O)NCc3cc(C(F)(F)F)cc(C(F)(F)F)c3)cc2nn1C,> 100 µM
8,Cc1ccc(CN(CC(=O)NC2CCCCC2)C(=O)c2csnn2)cc1,> 100 µM
9,CC(C)(C)n1cnc2cc(NC(=O)c3ccccc3)ccc21,17 µM
10,COc1cc(CN2C[C@@H](CO)O[C@@H](n3cnc4c(N5CCN(c6ccccc6)CC5)ncnc43)C2)cc(OC)c1OC,96.3 µM
11,Fc1cc(Cl)ccc1Nc1nc(NCc2ccccc2)nc2ccsc12,> 100 µM
12,COc1cccc(N2[C@@H](CC(C)=O)c3ccc(/C=C/C(C)=O)cc3S2(=O)=O)c1,> 100 µM
13,CC(=O)/C(=N\Nc1ccc(Cl)cc1Cl)Sc1cccc2cccnc12,> 100 µM
14,CCn1cc(C(=O)N2CCN(C(=O)c3ccco3)CC2)c2cc(OC)c(OC)cc2c1=O,25.4 µM
15,CC(CN1CCOCC1)OC(=O)c1ccc2c(c1)OCCO2 (stereo not given),> 100 µM
16,CCOC(=O)[C@@H]1[C@H]2COc3ccccc3[C@@H]2N2C(=O)N(c3ccc(Cl)cc3)C(=O)[C@]12C,7.51 µM
17,Cc1ccc(NC(=O)c2ccc3c(c2)OCCO3)cc1S(=O)(=O)Nc1cccc(Cl)c1,> 100 µM
18,O=C(O)CCCC(=O)N1CCc2cc(S(=O)(=O)N3CCc4ccccc43)ccc21,> 100 µM
19,CCCN(C(=O)Cn1c(C(F)(F)F)nc2ccccc21)C1CCS(=O)(=O)C1 (stereo not given),11.2 µM
20,Cc1ccc(C2(O)CCN3CCCCC32)cc1 (stereo not given),> 100 µM
21,Cc1ccccc1-n1ncc2c1CC(C)(C)CC2NC(=O)c1ccncc1 (stereo not given),> 100 µM
22,CCn1ncc(Br)c1C(=O)N(C)C12CC3CC(CC(C3)C1)C2,> 100 µM
23,COc1ccc(C(CNc2ccc(S(=O)(=O)N3CCCC3)cc2[N+](=O)[O-])N2CCCC2)cc1 (stereo not given),12.2 µM
24,OCCNc1ncnc2ccc(Br)cc12,45.2 µM
25,NC(=O)c1c(NC(=O)C(=O)N2CCOCC2)sc2c1CCCC2,> 100 µM
26,COc1ccc2c(c1OC)CN1CCc3cc4c(cc3[C@@H]1[C@@H]2O)OCO4,> 100 µM

# Same assay, conditions: NRP-1 b1b2 / RPARPAR peptide binding, FP or AlphaScreen; FP, mean of runs
row,SMILES,IC50
1,CCOC(=O)C1CCN(S(=O)(=O)c2ccc3c(c2)CCN3C(=O)C2CCC2)CC1,> 95 µM (inactive)
2,CCc1ccc(NS(=O)(=O)c2c(C(=O)N3CCCCCC3)c(C)n(C)c2C)cc1,> 95 µM (inactive)
3,O=C(CSc1nc2ccccc2c(=O)n1-c1ccc(F)cc1F)Nc1ccc2c(c1)CCC2,> 95 µM (inactive)
4,Nc1cc(S(=O)(=O)O)cc([N+](=O)[O-])c1O,> 95 µM (inactive)
5,O=C(O)C1CCN(C(=O)c2ccc(Cl)cc2)CC1,> 95 µM (inactive)
6,CNc1nc(-c2ccc3c(c2)CCN3C(=O)c2ccccc2F)cs1,> 95 µM (inactive)
7,COc1c2ccc(C(=O)NCc3cc(C(F)(F)F)cc(C(F)(F)F)c3)cc2nn1C,> 95 µM (inactive)
8,Cc1ccc(CN(CC(=O)NC2CCCCC2)C(=O)c2csnn2)cc1,> 95 µM (inactive)
9,CC(C)(C)n1cnc2cc(NC(=O)c3ccccc3)ccc21,> 95 µM (inactive)
10,COc1cc(CN2C[C@@H](CO)O[C@@H](n3cnc4c(N5CCN(c6ccccc6)CC5)ncnc43)C2)cc(OC)c1OC,> 95 µM (inactive)
11,Fc1cc(Cl)ccc1Nc1nc(NCc2ccccc2)nc2ccsc12,> 95 µM (inactive)
12,COc1cccc(N2[C@@H](CC(C)=O)c3ccc(/C=C/C(C)=O)cc3S2(=O)=O)c1,> 95 µM (inactive)
13,CC(=O)/C(=N\Nc1ccc(Cl)cc1Cl)Sc1cccc2cccnc12,> 95 µM (inactive)

# — PubChem BioAssay AID651650 (Sanford-Burnham Center for Chemical Genomics, 2012)
